Results on one molecule are retold here after patent publication US9420797B2, “Method for preparing biocidal aqueous compositions” (BROMINE COMPOUNDS LTD., priority 2012, dated 2016).

Assay [1] has as its system Inoculum of bacteria (Activated sludge taken from Domestic Waste Water treatment Plant—Haifa). As to the kind of experiment: Microbial efficacy (% kill) under different TOC loading, activated sludge bacteria, pour plate count on R2A agar. Type of assay: cell-based. The conditions noted are these: contact time 30 min, pH 7. From the text: Inoculum of bacteria (Activated sludge taken from Domestic Waste Water treatment Plant-Haifa). R2A agar for general counting. Tryptone, in amounts of either 0.025, or 0.119 or 0.239 g solid tryptone, was weighed and dissolved in 1 liter of buffer. Neutralization solution (NaHSO4). Chlorourea solution, prepared from aq. urea hydrochloride (consisting of 5.8% HCl and 38.2% urea, Wt %) and a 12.9% aq NaOCl as Cl2, Wt %); Urea, HCl:NaOCl 4:1:1 molar ratio. The biocidal efficacy of the antifouling composition at different organic loads of 0, 10, 30 and 50 ppm TOC, was examined under different biocidal concentrations (2.5, 5 and 10 ppm) at pH 7. 1) 1 ml of inoculum was added to tryptone solutions (placed in 3 erlenmeyer flasks, 100 ml each, with different concentrations of TOC-0, 10, 30 and 50 ppm). 2) 1 ml of each sample was inoculated on […] agar (pour plate method). The result stands for the bacteria count at zero time. 3) For each of the tryptone concentrations (0, 10, 30, 50 ppm TOC) an inoculum of bacteria (1 ml) and the appropriate biocide concentration were added. 4) After 30 and 60 min. of shaking (100 rpm), 1 ml of each sample was transferred to a tube filled with 9 ml of the neutralization solution. An aliquot of 1 ml was taken from this solution and added to another tube containing 9 ml of buffer solution. The solution was mixed under vortex. This operation was repeated 4 more times. 5) 1 ml from the two lowest dilutions was inoculated on a […] agar (by the pour plate method). 6) After the plates were incubated at 25° C. for 5-7 days, the bacteria count was recorded.

In assay [2] the test system is Pseudomonas aeruginosa (ATCC 15442) entrapped in alginate gel beads. As to the kind of experiment: Biocidal activity against simulated biofilm (bacteria entrapped in alginate gel beads), surviving CFU. Particulars: contact time 24 hours, count at time 0 1.40E+07.

Molecules are shown by their SMILES.

In the case of `OCl` [NaOCl, sodium hypochlorite], the “% Kill” value in assay [1] (TOC 0 ppm, biocide 2.5 ppm as Cl2) was determined as 98.8%; in assay [1] (TOC 0 ppm, biocide 5 ppm as Cl2), 99.6%; in assay [1] (TOC 0 ppm, biocide 10 ppm as Cl2) it was 99.9%; in assay [1] (TOC 10 ppm, biocide 2.5 ppm as Cl2), 37.7%; in assay [1] (TOC 10 ppm, biocide 5 ppm as Cl2) it was 97.8%; in assay [1] (TOC 10 ppm, biocide 10 ppm as Cl2) it was 99.5%. Moreover, the “% Kill” value in assay [1] (TOC 30 ppm, biocide 2.5 ppm as Cl2) is reported as 11.6%; in assay [1] (TOC 30 ppm, biocide 5 ppm as Cl2), 78.2%; in assay [1] (TOC 30 ppm, biocide 10 ppm as Cl2), 93.6%; in assay [1] (TOC 50 ppm, biocide 2.5 ppm as Cl2), 24.1%; in assay [1] (TOC 50 ppm, biocide 5 ppm as Cl2) it was 49.2%; in assay [1] (TOC 50 ppm, biocide 10 ppm as Cl2) it was 91.7%. Besides, the “survival of bacteria (CFU)” value in assay [2] (biocide 0.5 ppm as Cl2) was 3.6E+06 CFU; in assay [2] (biocide 1 ppm as Cl2) it was 2.53E+06 CFU; in assay [2] (biocide 2.5 ppm as Cl2), 1.00E+00 CFU; in assay [2] (biocide 5 ppm as Cl2) it was 1.00E+00 CFU.
